Consider 9 molecules from US8889732B2, “Fused heterocyclic compounds and thrombopoietin receptor activators” (Nissan Chemical Industries, Ltd., priority 2009, dated 2014).

The first test addresses T1, human thrombopoietin receptor (c-mpl) (Homo sapiens, UniProt P40238).
T1 construct: expressed in transfected cells
T1 sequence (P40238 26-635): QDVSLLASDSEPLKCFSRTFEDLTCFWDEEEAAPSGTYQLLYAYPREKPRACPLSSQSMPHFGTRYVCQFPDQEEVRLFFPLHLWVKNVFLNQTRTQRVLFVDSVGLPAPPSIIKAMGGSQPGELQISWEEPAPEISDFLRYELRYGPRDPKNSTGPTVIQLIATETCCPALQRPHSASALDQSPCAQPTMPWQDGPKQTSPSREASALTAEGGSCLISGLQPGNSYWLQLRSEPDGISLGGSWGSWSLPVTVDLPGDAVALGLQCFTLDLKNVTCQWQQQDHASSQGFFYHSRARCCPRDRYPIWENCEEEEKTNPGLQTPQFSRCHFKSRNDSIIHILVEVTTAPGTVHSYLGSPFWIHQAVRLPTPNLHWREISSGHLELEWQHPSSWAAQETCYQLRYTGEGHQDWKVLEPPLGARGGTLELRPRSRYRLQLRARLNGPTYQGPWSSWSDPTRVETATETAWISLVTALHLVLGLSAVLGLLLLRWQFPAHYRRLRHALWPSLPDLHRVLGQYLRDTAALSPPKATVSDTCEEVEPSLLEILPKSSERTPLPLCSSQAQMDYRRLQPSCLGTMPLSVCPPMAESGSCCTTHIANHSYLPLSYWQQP
Description: Stimulation of proliferation of thrombopoietin-dependent cell line UT7/EPO-mpl (WST-8). The class given is cell-based. The note with it: UT7/EPO-mpl cells. Here is the method: The responses of thrombopoietin receptor to the compounds of Synthetic Examples of the present invention were assayed using a human leukemic cell line, UT7/EPO-mpl.
(§1) UT7/EPO-mpl is a stable transformed cell line obtained by introducing into human leukemic cell line UT7/EPO a vector that induces expression of human thrombopoietin receptor (c-mpl) under control of cytomegalovirus immediate-early promoter by the method of Takatoku et al. (J. Biol. Chem., 272:7259-7263 (1997)). […] These two cell lines were subcultured in IMDM (Invitrogen) containing 10% fetal bovine serum (Thermo Electron or BioWest) using a CO2 incubator (5% CO2, 37° C.).
(§2) The subcultured cells described above were washed twice with PBS and suspended in IMDM containing 10% fetal bovine serum at a cell density of 6×10^4 cells/ml. The cell suspension was transferred to a 96-well tissue culture plate (CORNING) in 100-μl aliquots. Then either thrombopoietin (Pepro Tech EC) or the compound of Synthetic Examples dissolved in dimethyl sulfoxide were diluted 83-fold with IMDM containing 10% fetal bovine serum and added to the aforementioned cell suspension in 20-μl aliquots. The cell suspension was incubated in a CO2 incubator (5% CO2, 37° C.) for 4 days. Cell proliferation was assayed using WST-8 reagent (Kishida Chemical Co., Ltd.) according to instructions by the manufacturer. A 10-μl aliquot of 5 mM WST-8 reagent solution was added to each well of the tissue culture plate, and the plate was incubated at 37° C. for 4 hours. The formazan pigment generated was detected by measuring the absorbance at 450 nm with a 96-well microplate reader (Nihon Molecular Devices, Spectramax 190).
As for “TPO: thrombopoietin (Pepro Tech EC), a cytokine consisting of 332 amino acids”, the “Proliferation of thrombopoietin-responsive UT7/EPO-mpl cells” value is “stimulated”.

The test is the same for the next values; noted with them: concentration yielding growth rate corresponding to 50% of growth of UT-7/EPO-mpl in the presence of 10 ng/mL TPO; 4 days incubation, WST-8.
Regarding `C/C(=N\NC(=S)Nc1ccc(-c2nnn[nH]2)cc1)c1csc(-c2ccc3c(c2)CCC3)c1O` [compound 64], the EC50 was 4.42 nM.
The same measure, in the same setting: with `C/C(=N\NC(=S)Nc1cccc(-c2nnn[nH]2)c1)c1csc(-c2ccc3c(c2)CCO3)c1O` [compound 65] the figure was 5.65 nM; with `C/C(=N\NC(=S)Nc1ccc(-c2nnn[nH]2)cc1)c1csc(-c2ccc3c(c2)CCO3)c1O` [compound 66], 8.79 nM; with `C/C(=N\NC(=O)c1ccc(-c2nnn[nH]2)cc1)c1csc(-c2ccc3c(c2)CCCC3)c1O` [compound 67], 5.23 nM.
Regarding `C/C(=N\NC(=O)c1ccc(-c2nnn[nH]2)cc1)c1csc(-c2ccc3c(c2)CCC3)c1O` [compound 68], the EC50 is 22.5 nM.
The same measure, in the same setting: with `C/C(=N\NC(=O)c1ccc(C(=O)NCc2ccc(C(=O)NCCO)cc2)s1)c1csc(-c2ccc3c(c2)CCCC3)c1O` [compound 69] the figure was 0.357 nM; with `C/C(=N\NC(=O)c1ccc(C(=O)NCc2ccc(C(=O)NCCO)cc2)s1)c1csc(-c2ccc3c(c2)CCC3)c1O` [compound 70], 0.382 nM; with `C/C(=N\NC(=O)c1ccc(C(=O)NCc2ccc(C(=O)NCCO)cc2)s1)c1csc(-c2ccc3c(c2)CCO3)c1O` [compound 71], 3.97 nM.

Another test relates to UT7/EPO. As to the kind of experiment: Proliferation of mother cell line UT7/EPO (no c-mpl). Type of test: cell-based, human. The following applies: UT7/EPO cells without c-mpl. On the procedure: as §1
as §2, with “A 10-μl aliquot of 5 mM WST-8 reagent solution was added to each well of the tissue culture plate, and the plate was incubated at 37° C. for 4 hours.” left out
For the molecule “TPO: thrombopoietin (Pepro Tech EC), a cytokine consisting of 332 amino acids”, the “Effect on proliferation of UT7/EPO, the mother cell line” value was “no response”.
